Experimental data taken from patent US10758534B2 (Vertex Pharmaceuticals Incorporated, priority 2014, dated 2020).

What follows are compounds tested against T1, F508del (Homo sapiens, UniProt P13569, DEL508-508) (assay: Protocol 2: FRET membrane potential optical assay (VIPR), identification of correction compounds). Conditions: F508del CFTR modulator activity; compounds of Table 1; read-out: EC30.
T1 construct: expressed in transfected cells
Assay type: cell-based
Summary of the method: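 NIH3T3 mouse fibroblasts stably expressing F508del-CFTR incubated with compound 16 h at 37 °C in serum-free medium, then loaded with CC2-DMPE/DiSBAC2(3) FRET dyes. Channel activated with 10 μM forskolin plus 20 μM genistein in Cl⁻-free (gluconate) bath; depolarisation from Cl⁻ efflux read on VIPR II.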

T1 sequence (P13569 with tags, fused parts or gaps DEL508-508): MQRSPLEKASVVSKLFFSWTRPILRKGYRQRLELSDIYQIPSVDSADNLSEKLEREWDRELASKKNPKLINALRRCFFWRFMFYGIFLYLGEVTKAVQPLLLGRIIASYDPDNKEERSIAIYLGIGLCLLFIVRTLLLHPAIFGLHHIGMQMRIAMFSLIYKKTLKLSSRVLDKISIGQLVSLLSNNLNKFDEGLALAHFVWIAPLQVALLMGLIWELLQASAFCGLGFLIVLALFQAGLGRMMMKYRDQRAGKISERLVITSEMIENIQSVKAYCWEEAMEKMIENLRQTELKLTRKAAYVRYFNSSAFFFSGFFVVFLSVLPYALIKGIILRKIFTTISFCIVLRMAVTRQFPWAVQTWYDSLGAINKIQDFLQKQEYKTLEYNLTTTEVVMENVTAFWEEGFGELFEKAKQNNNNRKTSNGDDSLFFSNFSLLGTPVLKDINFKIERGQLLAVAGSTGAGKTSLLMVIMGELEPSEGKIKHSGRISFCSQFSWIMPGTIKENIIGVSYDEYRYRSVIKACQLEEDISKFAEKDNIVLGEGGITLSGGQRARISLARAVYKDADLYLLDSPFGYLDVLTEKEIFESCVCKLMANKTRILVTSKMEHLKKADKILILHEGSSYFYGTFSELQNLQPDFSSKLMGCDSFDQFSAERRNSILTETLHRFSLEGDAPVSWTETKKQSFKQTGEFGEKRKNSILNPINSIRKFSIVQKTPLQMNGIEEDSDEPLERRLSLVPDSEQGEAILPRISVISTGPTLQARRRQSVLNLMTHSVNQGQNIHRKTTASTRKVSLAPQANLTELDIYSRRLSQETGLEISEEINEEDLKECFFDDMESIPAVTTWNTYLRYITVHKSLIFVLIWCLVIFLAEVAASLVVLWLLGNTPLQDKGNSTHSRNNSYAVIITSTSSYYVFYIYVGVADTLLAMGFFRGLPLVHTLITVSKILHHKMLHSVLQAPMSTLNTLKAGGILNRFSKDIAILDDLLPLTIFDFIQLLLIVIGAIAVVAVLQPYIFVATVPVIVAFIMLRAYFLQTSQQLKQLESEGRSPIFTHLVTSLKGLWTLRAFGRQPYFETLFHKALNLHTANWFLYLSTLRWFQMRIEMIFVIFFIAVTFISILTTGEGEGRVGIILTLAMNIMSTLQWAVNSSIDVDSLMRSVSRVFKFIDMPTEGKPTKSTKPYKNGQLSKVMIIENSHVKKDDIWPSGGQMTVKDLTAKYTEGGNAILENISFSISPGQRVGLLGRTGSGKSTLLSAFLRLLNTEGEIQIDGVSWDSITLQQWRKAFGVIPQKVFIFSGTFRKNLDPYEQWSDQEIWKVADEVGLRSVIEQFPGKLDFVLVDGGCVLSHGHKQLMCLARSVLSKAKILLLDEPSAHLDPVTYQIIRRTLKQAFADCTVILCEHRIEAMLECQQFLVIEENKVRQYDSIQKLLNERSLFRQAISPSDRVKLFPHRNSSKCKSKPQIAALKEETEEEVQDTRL

| EC30 | SMILES |
| --- | --- |
| < 3 µM | C[C@@H]1CN(c2nc(-c3ccc(OC(F)(F)F)cc3)ccc2C(=O)NS(=O)(=O)c2cccnc2N)C(C)(C)C1 [Compound 2223, N-[(2-amino-3-pyridyl)sulfonyl]-6-[4-(trifluoromethoxy)phenyl]-2-[(4S)-2,2,4-trimethylpyrrolidin-1-yl]pyridine-3-carboxamide] |
| 3 to 10 µM | Cc1cccc(-c2ccc(C(=O)NS(=O)(=O)N3CC[C@H](N)C3)c(N3C[C@@H](C)CC3(C)C)n2)c1C [Compound 2225, N-[(3S)-3-aminopyrrolidin-1-yl]sulfonyl-6-(2,3-dimethylphenyl)-2-[(4S)-2,2,4-trimethylpyrrolidin-1-yl]pyridine-3-carboxamide] |
| 3 to 10 µM | CCCC(C)N1CCN(c2cccc(S(=O)(=O)NC(=O)c3cccnc3N3CC(C)CC3(C)C)n2)CC1 (centres unmarked) [Compound 2226, N—[[6-[4-(1-methylbutyl)piperazin-1-yl]-2-pyridyl]sulfonyl]-2-(2,2,4-trimethylpyrrolidin-1-yl)pyridine-3-carboxamide] |
| < 3 µM | CCOc1cc(C)c(-c2ccc(C(=O)NS(=O)(=O)c3cccc(N)n3)c(N3C[C@@H](C)CC3(C)C)n2)cc1C [Compound 2227, N-[(6-amino-2-pyridyl)sulfonyl]-6-(4-ethoxy-2,5-dimethyl-phenyl)-2-[(4S)-2,2,4-trimethylpyrrolidin-1-yl]pyridine-3-carboxamide] |
| 3 to 10 µM | C[C@@H]1CN(c2nc(-c3ccc(F)c(F)c3)ccc2C(=O)NS(=O)(=O)N2CC[C@H](N)C2)C(C)(C)C1 [Compound 2229, N-[(3S)-3-aminopyrrolidin-1-yl]sulfonyl-6-(3,4-difluorophenyl)-2-[(4S)-2,2,4-trimethylpyrrolidin-1-yl]pyridine-3-carboxamide] |
| < 3 µM | CC1CN(c2nc(OC(C)C)c(F)cc2C(=O)NS(=O)(=O)c2cccc(N)n2)C(C)(C)C1 (centres unmarked) [Compound 2230, N-[(6-amino-2-pyridyl)sulfonyl]-5-fluoro-6-isopropoxy-2-(2,2,4-trimethylpyrrolidin-1-yl)pyridine-3-carboxamide] |
| < 3 µM | CC(C)Cn1cc(-c2ccc(C(=O)NS(=O)(=O)c3cccnc3N)c(N3C[C@@H](C)CC3(C)C)n2)cn1 [Compound 2231, N-[(2-amino-3-pyridyl)sulfonyl]-6-(1-isobutylpyrazol-4-yl)-2-[(4S)-2,2,4-trimethylpyrrolidin-1-yl]pyridine-3-carboxamide] |
| 3 to 10 µM | Cc1cc(O)cc(-c2ccc(C(=O)NS(=O)(=O)c3cccc(N)n3)c(N3C[C@@H](C)CC3(C)C)n2)c1 [Compound 2232, N-[(6-amino-2-pyridyl)sulfonyl]-6-(3-hydroxy-5-methyl-phenyl)-2-[(4S)-2,2,4-trimethylpyrrolidin-1-yl]pyridine-3-carboxamide] |
| < 3 µM | COc1cccc(Oc2cccc(S(=O)(=O)NC(=O)c3cccnc3N3CC(C)CC3(C)C)n2)c1OC (centres unmarked) [Compound 2233, N—[[6-(2,3-dimethoxyphenoxy)-2-pyridyl]sulfonyl]-2-(2,2,4-trimethylpyrrolidin-1-yl)pyridine-3-carboxamide] |
| < 3 µM | C[C@@H]1CN(c2nc(-c3ccc(OC(F)(F)F)cc3)ccc2C(=O)NS(=O)(=O)c2ccc[nH]c2=O)C(C)(C)C1 [Compound 2234, N-[(2-oxo-1H-pyridin-3-yl)sulfonyl]-6-[4-(trifluoromethoxy)phenyl]-2-[(4S)-2,2,4-trimethylpyrrolidin-1-yl]pyridine-3-carboxamide] |
| < 3 µM | CCOc1cccc(-c2ccc(C(=O)NS(=O)(=O)c3ccc[nH]c3=O)c(N3C[C@@H](C)CC3(C)C)n2)c1 [Compound 2235, 6-(3-ethoxyphenyl)-N-[(2-oxo-1H-pyridin-3-yl)sulfonyl]-2-[(4S)-2,2,4-trimethylpyrrolidin-1-yl]pyridine-3-carboxamide] |
| < 3 µM | C[C@@H]1CN(c2nc(-c3cc(F)cc(F)c3)ccc2C(=O)NS(=O)(=O)c2cccc(N)n2)C(C)(C)C1 [Compound 2236, N-[(6-amino-2-pyridyl)sulfonyl]-6-(3,5-difluorophenyl)-2-[(4S)-2,2,4-trimethylpyrrolidin-1-yl]pyridine-3-carboxamide] |
| < 3 µM | COc1ccc(Oc2cccc(S(=O)(=O)NC(=O)c3cccnc3N3CC(C)CC3(C)C)n2)cc1 (centres unmarked) [Compound 2239, N—[[6-(4-methoxyphenoxy)-2-pyridyl]sulfonyl]-2-(2,2,4-trimethylpyrrolidin-1-yl)pyridine-3-carboxamide] |
| 3 to 10 µM | COc1cccc(-c2ccc(C(=O)NS(=O)(=O)N3CC[C@H](N)C3)c(N3C[C@@H](C)CC3(C)C)n2)c1 [Compound 2240, N-[(3S)-3-aminopyrrolidin-1-yl]sulfonyl-6-(3-methoxyphenyl)-2-[(4S)-2,2,4-trimethylpyrrolidin-1-yl]pyridine-3-carboxamide] |
| < 3 µM | CCOc1cc(C)cc(-c2ccc(C(=O)NS(=O)(=O)c3cccnc3N)c(N3C[C@@H](C)CC3(C)C)n2)c1 [Compound 2241, N-[(2-amino-3-pyridyl)sulfonyl]-6-(3-ethoxy-5-methyl-phenyl)-2-[(4S)-2,2,4-trimethylpyrrolidin-1-yl]pyridine-3-carboxamide] |
| < 3 µM | CC(C)(C)c1ccc(C(=O)NS(=O)(=O)c2cccc(N)n2)c(N2CCC(CC3CC3)C2(C)C)n1 (centres unmarked) [Compound 2242, N-[(6-amino-2-pyridyl)sulfonyl]-6-tert-butyl-2-[3-(cyclopropylmethyl)-2,2-dimethyl-pyrrolidin-1-yl]pyridine-3-carboxamide] |
| < 3 µM | C[C@@H]1CN(c2nc(C3=CCCN(C(=O)Cc4ccccc4)C3)ccc2C(=O)NS(=O)(=O)c2cccc(NC(=O)Cc3ccccc3)n2)C(C)(C)C1 [Compound 2243, N—[[6-[(2-phenylacetyl)amino]-2-pyridyl]sulfonyl]-6-[1-(2-phenylacetyl)-3,6-dihydro-2H-pyridin-5-yl]-2-[(4S)-2,2,4-trimethylpyrrolidin-1-yl]pyridine-3-carboxamide] |
| < 3 µM | COc1ccc(-c2ccc(C(=O)NS(=O)(=O)c3cccnc3N)c(N3C[C@@H](C)CC3(C)C)n2)cn1 [Compound 2244, N-[(2-amino-3-pyridyl)sulfonyl]-6-(6-methoxy-3-pyridyl)-2-[(4S)-2,2,4-trimethylpyrrolidin-1-yl]pyridine-3-carboxamide] |
| < 3 µM | C[C@@H]1CN(c2nc(-c3cccc(OC(F)(F)F)c3)ccc2C(=O)NS(=O)(=O)c2cccnc2N)C(C)(C)C1 [Compound 2245, N-[(2-amino-3-pyridyl)sulfonyl]-6-[13-(trifluoromethoxy)phenyl]-2-[(4S)-2,2,4-trimethylpyrrolidin-1-yl]pyridine-3-carboxamide] |
| < 3 µM | CC(C)Cc1ccc(C(=O)NS(=O)(=O)c2ccccc2)c(N2C[C@@H](C)CC2(C)C)n1 [Compound 2246, N-(benzenesulfonyl)-6-isobutyl-2-[(4S)-2,2,4-trimethylpyrrolidin-1-yl]pyridine-3-carboxamide] |
| 3 to 10 µM | COc1cc(CO)cc(-c2ccc(C(=O)NS(=O)(=O)c3ccc[nH]c3=O)c(N3C[C@@H](C)CC3(C)C)n2)c1 [Compound 2247, 6-[3-(hydroxymethyl)-5-methoxy-phenyl]-N-[(2-oxo-1H-pyridin-3-yl)sulfonyl]-2-[(4S)-2,2,4-trimethylpyrrolidin-1-yl]pyridine-3-carboxamide] |
| < 3 µM | CCOc1nn(-c2ccc(C(=O)NS(=O)(=O)c3cccnc3N)c(N3C[C@@H](C)CC3(C)C)n2)cc1C [Compound 2248, N-[(2-amino-3-pyridyl)sulfonyl]-6-(3-ethoxy-4-methyl-pyrazol-1-yl)-2-[(4S)-2,2,4-trimethylpyrrolidin-1-yl]pyridine-3-carboxamide] |
| < 3 µM | CC1CN(c2ncccc2C(=O)NS(=O)(=O)c2cccc(OCc3cccc4c3OCO4)n2)C(C)(C)C1 (centres unmarked) [Compound 2249, N—[[6-(1,3-benzodioxol-4-ylmethoxy)-2-pyridyl]sulfonyl]-2-(2,2,4-trimethylpyrrolidin-1-yl)pyridine-3-carboxamide] |
| < 3 µM | CC1CN(c2ncccc2C(=O)NS(=O)(=O)c2cccc(NC3CCCCC3)n2)C(C)(C)C1 (centres unmarked) [Compound 2250, N—[[6-(cyclohexylamino)-2-pyridyl]sulfonyl]-2-(2,2,4-trimethylpyrrolidin-1-yl)pyridine-3-carboxamide] |
| < 3 µM | CC1CN(c2ncccc2C(=O)NS(=O)(=O)c2cccc(N(C)CC(=O)OC(C)(C)C)n2)C(C)(C)C1 (centres unmarked) [Compound 2251, tert-butyl 2-[methyl-[6-[[2-(2,2,4-trimethylpyrrolidin-1-yl)pyridine-3-carbonyl]sulfamoyl]-2-pyridyl]amino]acetate] |

| SMILES | EC30 |
| --- | --- |
| CC(C)COc1cc(F)cc(-c2ccc(C(=O)NS(=O)(=O)c3cccc(N)n3)c(N3CC4CC(C3)C4C)n2)c1 (centres unmarked) [Compound 2224, N-[(6-amino-2-pyridyl)sulfonyl]-6-(3-fluoro-5-isobutoxy-phenyl)-2-(6-methyl-3-azabicyclo[3.1.1]heptan-3-yl)pyridine-3-carboxamide] | < 3 µM |
| CC(C)COc1cc(F)cc(-c2ccc(C(=O)NS(=O)(=O)N3CC[C@H](F)C3)c(N3C[C@@H](C)CC3(C)C)n2)c1 [Compound 2228, 6-(3-fluoro-5-isobutoxy-phenyl)-N-[(3S)-3-fluoropyrrolidin-1-yl]sulfonyl-2-[(4S)-2,2,4-trimethylpyrrolidin-1-yl]pyridine-3-carboxamide] | < 3 µM |
| CC(C)COc1cc(F)cc(-c2ccc(C(=O)NS(=O)(=O)N3CC4CCC(C3)N4)c(N3C[C@@H](C)CC3(C)C)n2)c1 [Compound 2237, N-(3,8-diazabicyclo[3.2.1]octan-3-ylsulfonyl)-6-(3-fluoro-5-isobutoxy-phenyl)-2-[(4S)-2,2,4-trimethylpyrrolidin-1-yl]pyridine-3-carboxamide] | < 3 µM |
| Cc1cc(OCC(C)C)nn1-c1ccc(C(=O)NS(=O)(=O)c2cccnc2N)c(N2C[C@@H](C)CC2(C)C)n1 [Compound 2238, N-[(2-amino-3-pyridyl)sulfonyl]-6-(3-isobutoxy-5-methyl-pyrazol-1-yl)-2-[(4S)-2,2,4-trimethylpyrrolidin-1-yl]pyridine-3-carboxamide] | < 3 µM |
